The source of these data is patent publication US6465615B1 (AstraZeneca AB, priority 2001, dated 2002).

Molecules are shown by their SMILES. Entries after “also recorded” stand apart in the source; their conditions may differ.

A short description of data set [1]: Stability / hygroscopicity at ambient room temperature and humidity. The class given is physicochemical. Conditions: for stability at standard room temperature and humidity (ambient conditions): Preparation 3 after about 5 hours standing, TGA. The protocol: The partially dehydrated material was allowed to stand for about 5 hours.
The conditions of data set [2]: cited from earlier work.
Data set [3] is described as follows: Solubility measured visually. Conditions: relative to crystalline lisinopril dihydrate (Zestril).
The nature of data set [4]: physchem.

With `NCCCC[C@H](N[C@@H](CCc1ccccc1)C(=O)O)C(=O)N1CCC[C@H]1C(=O)O.O` [Preparation 3], the “stability at standard room temperature and humidity (ambient conditions)” value (“stability” below) in data set [1] is listed as “not a stable monohydrate”. Further, the hygroscopicity result in data set [1] (crystals returned to room temperature after heating, evolved water reabsorbed from atmosphere) was “strongly hygroscopic”.
As to `NCCCC[C@H](N[C@@H](CCc1ccccc1)C(=O)O)C(=O)N1CCC[C@H]1C(=O)O` [lisinopril], in data set [2] (following oral administration), the “time to peak serum concentrations” value was not above 7 h. Besides, the “effective half-life of accumulation” value in data set [2] (multiple dosing) is “about 12.6 hours”.
For `NCCCC[C@H](N[C@@H](CCc1ccccc1)C(=O)O)C(=O)N1CCC[C@H]1C(=O)O.O` [monohydrate lisinopril form 1], the “stability” value in data set [1] (listed as form 1) is recorded as “stable”.
For the compound `NCCCC[C@H](N[C@@H](CCc1ccccc1)C(=O)O)C(=O)N1CCC[C@H]1C(=O)O` [monohydrate lisinopril form 2, 1-(N^2-[(S)-1-carboxy-3-phenylpropyl]-L-lysyl)-L-proline], the “solubility compared with lisinopril dihydrate” value in data set [3] is recorded as “far greater solubility; also recorded: much more soluble; also recorded: substantially more soluble”. The solubility in data set [4] was 400 to 450 mg/mL. Further, the “stability” value in data set [1] is recorded as “stable”.
